Here are results for one compound from article PMC12501029, “Discovery of a CNS active GSK3 degrader using orthogonally reactive linker screening” (Nature Communications, 2025).

Read-outs that look alike come from different tables or passages of the source.

This data set can be described thus: KH1 (24) intravenous PK/PD study: blood and brain levels, observation. The format is in vivo, female Balb/c mice. On the procedure: The intravenous formulation for KH1 (24) was prepared by dissolving the compound in DMSO. This was then diluted with PEG400, followed by dropwise addition of sterile water to form a complete solution. The resulting formulation consisted of 5% DMSO, 40% PEG400, and 55% water, and contained KH1 (24) at a concentration of 1.0 mg/mL.
For the PK/PD study for KH1 (24), three female Balb/c mice were given a bolus intravenous injection at a dose level of 5 mg/kg (5 mL/kg). Animals were observed regularly after dose administration. At 4 h after the administration of KH1 (24), all animals were placed under terminal anaesthesia with isoflurane. Blood was collected via cardiac puncture and the brain and liver were removed. Two aliquots of 10 µL blood were each diluted into 90 µL of Milli-Q ultrapure water. All diluted blood samples were stored at −20 °C prior to bioanalysis. A portion of the brain was stored at −20 °C awaiting bioanalysis, while the remaining brain and liver tissues were snap-frozen in liquid nitrogen and stored at −80 °C awaiting biological investigation. The concentration of KH1 (24) in whole blood and brain tissue was determined via UPLC-MS/MS.
Blood samples (10 µL) from study mice were diluted 1× with 90 µL of water immediately when the sample was taken. All calibration, quality control, blanks and double blank samples (all 100 µL volume) were mixed (vortexed) with 300 µL of LCMS grade acetonitrile to precipitate proteins.
For study samples, a volume (30 µL) was mixed (vortexed) with a volume (90 µL) of acetonitrile to precipitate proteins. After protein precipitation, all samples were centrifuged to pellet the proteins. Study samples in Micronics tubes were centrifuged using a Beckman Coutler Allegra C-12R Centrifuge for 10 min at 3750 rpm. All other samples in Eppendorf tubes were centrifuged using a Sigma SciQuip 1–14 centrifuge for 10 min (14,800 rpm/16,163 × g). Supernatant from study samples (80 µL) and calibration samples, QCs, blanks, and double blanks (200 µL) were then transferred to HPLC glass vials containing Milli-Q water (40 µL or 100 µL, respectively), ready for LCMS analysis.

`Cn1nc(N2CCC(=O)NC2=O)c2ccc(CN3CCN(Cc4ccc(-c5cn(-c6ccc(-c7cn8nccc(C(=O)Nc9cnccc9N9CCOCC9)c8n7)cc6)nn5)nc4)CC3)cc21` [compound 24]: the “adverse signs in vivo” value (5 mg/kg IV study and the lower IV/PO study) was “no adverse signs”. In addition, where the note is “female, Balb/c, mouse, brain / whole blood, intravenous, 5 mg/kg i.v., 4 hours, read-out: Brain:Blood Ratio”, the Kp at 4 h worked out at 0.1. The concentration at 4 h worked out at 68 nM (female, Balb/c, mouse, brain, intravenous, 5 mg/kg i.v., 4 hours, read-out: Mean Brain Concentration) and 696 nM (female, Balb/c, mouse, whole blood, intravenous, 5 mg/kg i.v., 4 hours, read-out: Mean Blood Concentration).
